Results published in the NIST ThermoML archive (doi:10.1021/je800234h).

Test: mn = molality of the nth substance listed, in mol/kg
Conditions: Liquid, Vibrating tube method

[Ca+2].[Cl-].[Cl-] [calcium chloride] + CCO
Conditions	mass density [kg/m3]
298.15 K, 210 kPa, m1 = 1.55	901.58
298.15 K, 260 kPa, m1 = 1.266	881.44
298.15 K, 280 kPa, m1 = 0.1743	800.14
298.15 K, 480 kPa, m1 = 0.09327	793.4
298.15 K, 670 kPa, m1 = 0.9896	861.73
298.15 K, 1020 kPa, m1 = 0.4379	820.65
298.15 K, 1170 kPa, m1 = 0.6899	839.86
298.15 K, 5010 kPa, m1 = 0.6899	843.06
298.15 K, 5020 kPa, m1 = 1.55	905.41
298.15 K, 5030 kPa, m1 = 0.4379	824.03
298.15 K, 5060 kPa, m1 = 0.09327	797.34
298.15 K, 5060 kPa, m1 = 1.266	885.32
298.15 K, 6330 kPa, m1 = 0.9896	866.36
298.15 K, 6580 kPa, m1 = 0.1743	804.98
298.15 K, 10030 kPa, m1 = 0.09327	801.45
298.15 K, 10410 kPa, m1 = 1.55	909.48
298.15 K, 10450 kPa, m1 = 0.4379	828.43
298.15 K, 10830 kPa, m1 = 0.9896	869.87
298.15 K, 10850 kPa, m1 = 1.266	889.78
298.15 K, 11050 kPa, m1 = 0.6899	847.88
298.15 K, 11330 kPa, m1 = 0.1743	808.85
298.15 K, 14860 kPa, m1 = 1.266	892.71
298.15 K, 15090 kPa, m1 = 0.9896	873.05
298.15 K, 15120 kPa, m1 = 0.6899	850.99
298.15 K, 15240 kPa, m1 = 1.55	912.94
298.15 K, 15470 kPa, m1 = 0.09327	805.77
298.15 K, 15480 kPa, m1 = 0.4379	832.33
298.15 K, 15720 kPa, m1 = 0.1743	812.29
298.15 K, 20020 kPa, m1 = 0.9896	876.57
298.15 K, 20080 kPa, m1 = 1.266	896.35
298.15 K, 20130 kPa, m1 = 0.6899	854.64
298.15 K, 20260 kPa, m1 = 1.55	916.34
298.15 K, 20460 kPa, m1 = 0.4379	836.02
298.15 K, 20490 kPa, m1 = 0.1743	815.89
298.15 K, 20640 kPa, m1 = 0.09327	809.69
298.15 K, 25010 kPa, m1 = 1.55	919.38
298.15 K, 25130 kPa, m1 = 0.9896	880.03
298.15 K, 25310 kPa, m1 = 0.6899	858.24
298.15 K, 25390 kPa, m1 = 0.09327	813.15
298.15 K, 25410 kPa, m1 = 1.266	899.86
298.15 K, 25750 kPa, m1 = 0.4379	839.75
298.15 K, 25820 kPa, m1 = 0.1743	819.73
298.15 K, 30060 kPa, m1 = 1.266	902.74
298.15 K, 30110 kPa, m1 = 0.9896	883.22
298.15 K, 30120 kPa, m1 = 0.6899	861.41
298.15 K, 30190 kPa, m1 = 0.09327	816.48
298.15 K, 30420 kPa, m1 = 1.55	922.62
298.15 K, 30640 kPa, m1 = 0.4379	843.03
298.15 K, 31460 kPa, m1 = 0.1743	823.58
298.15 K, 34210 kPa, m1 = 0.6899	863.97
298.15 K, 35050 kPa, m1 = 1.55	925.22
298.15 K, 35340 kPa, m1 = 0.1743	826.11
298.15 K, 35510 kPa, m1 = 0.9896	886.47
298.15 K, 35640 kPa, m1 = 0.09327	820.09
298.15 K, 35830 kPa, m1 = 0.4379	846.33
298.15 K, 35910 kPa, m1 = 1.266	906.14
298.15 K, 39770 kPa, m1 = 0.6899	867.27
298.15 K, 39860 kPa, m1 = 0.9896	888.93
298.15 K, 39920 kPa, m1 = 0.09327	822.78
298.15 K, 39960 kPa, m1 = 1.55	927.8
298.15 K, 39970 kPa, m1 = 0.4379	848.83
298.15 K, 39980 kPa, m1 = 1.266	908.34
298.15 K, 40180 kPa, m1 = 0.1743	829.13
323.15 K, 150 kPa, m1 = 0.09327	771.32
323.15 K, 240 kPa, m1 = 0.1743	777.83
323.15 K, 310 kPa, m1 = 1.266	857.3
323.15 K, 450 kPa, m1 = 0.4379	798.42
323.15 K, 520 kPa, m1 = 1.55	876.88
323.15 K, 1060 kPa, m1 = 0.6899	817.18
323.15 K, 1570 kPa, m1 = 0.9896	839.21
323.15 K, 4980 kPa, m1 = 0.4379	802.82
323.15 K, 5060 kPa, m1 = 0.1743	782.74
323.15 K, 5070 kPa, m1 = 1.266	861.31
323.15 K, 5120 kPa, m1 = 1.55	881.08
323.15 K, 5160 kPa, m1 = 0.9896	842.61
323.15 K, 5240 kPa, m1 = 0.09327	776.5
323.15 K, 5300 kPa, m1 = 0.6899	821.26
323.15 K, 9780 kPa, m1 = 0.4379	807.29
323.15 K, 10060 kPa, m1 = 1.266	865.4
323.15 K, 10180 kPa, m1 = 0.6899	825.76
323.15 K, 10340 kPa, m1 = 0.09327	781.44
323.15 K, 10480 kPa, m1 = 0.1743	787.98
323.15 K, 10740 kPa, m1 = 1.55	885.92
323.15 K, 10890 kPa, m1 = 0.9896	847.78
323.15 K, 15020 kPa, m1 = 1.55	889.39
323.15 K, 15060 kPa, m1 = 0.4379	811.96
323.15 K, 15370 kPa, m1 = 0.6899	830.3
323.15 K, 15410 kPa, m1 = 1.266	869.66
323.15 K, 15420 kPa, m1 = 0.9896	851.64
323.15 K, 15620 kPa, m1 = 0.1743	792.67
323.15 K, 15780 kPa, m1 = 0.09327	786.43
323.15 K, 19980 kPa, m1 = 1.266	873.2
323.15 K, 20040 kPa, m1 = 0.4379	816.13
323.15 K, 20060 kPa, m1 = 0.9896	855.4
323.15 K, 20420 kPa, m1 = 1.55	893.5
323.15 K, 20640 kPa, m1 = 0.1743	796.99
323.15 K, 20640 kPa, m1 = 0.6899	834.66
323.15 K, 20980 kPa, m1 = 0.09327	790.93
323.15 K, 24860 kPa, m1 = 1.266	876.87
323.15 K, 24870 kPa, m1 = 0.4379	819.96
323.15 K, 25080 kPa, m1 = 0.9896	859.23
323.15 K, 25310 kPa, m1 = 1.55	896.97
323.15 K, 25390 kPa, m1 = 0.6899	838.36
323.15 K, 25680 kPa, m1 = 0.09327	794.77
323.15 K, 25870 kPa, m1 = 0.1743	801.22
323.15 K, 30020 kPa, m1 = 0.4379	823.82
323.15 K, 30070 kPa, m1 = 1.266	880.67
323.15 K, 30140 kPa, m1 = 1.55	900.16
323.15 K, 30180 kPa, m1 = 0.6899	841.89
323.15 K, 30380 kPa, m1 = 0.1743	804.64
323.15 K, 30390 kPa, m1 = 0.09327	798.4
323.15 K, 30450 kPa, m1 = 0.9896	863.05
323.15 K, 35150 kPa, m1 = 0.4379	827.42
323.15 K, 35160 kPa, m1 = 1.266	884.27
323.15 K, 35210 kPa, m1 = 0.9896	866.21
323.15 K, 35620 kPa, m1 = 1.55	903.49
323.15 K, 35760 kPa, m1 = 0.6899	845.73
323.15 K, 35870 kPa, m1 = 0.09327	802.35
323.15 K, 35920 kPa, m1 = 0.1743	808.56
323.15 K, 39760 kPa, m1 = 0.4379	830.46
323.15 K, 39860 kPa, m1 = 0.09327	805.04
323.15 K, 39870 kPa, m1 = 1.266	887.49
323.15 K, 39940 kPa, m1 = 0.1743	811.21
323.15 K, 39940 kPa, m1 = 0.6899	848.42
323.15 K, 39960 kPa, m1 = 0.9896	869.15
323.15 K, 39980 kPa, m1 = 1.55	905.92
348.15 K, 270 kPa, m1 = 1.266	833.32
348.15 K, 310 kPa, m1 = 1.55	852.87
348.15 K, 580 kPa, m1 = 0.9896	814.32
348.15 K, 620 kPa, m1 = 0.4379	774.92
348.15 K, 750 kPa, m1 = 0.09327	748.39
348.15 K, 750 kPa, m1 = 0.6899	792.97
348.15 K, 890 kPa, m1 = 0.1743	755.18
348.15 K, 5060 kPa, m1 = 0.9896	819.3
348.15 K, 5060 kPa, m1 = 1.266	837.99
348.15 K, 5080 kPa, m1 = 0.6899	797.87
348.15 K, 5090 kPa, m1 = 0.1743	760.16
348.15 K, 5130 kPa, m1 = 0.4379	780.06
348.15 K, 5210 kPa, m1 = 1.55	858.12
348.15 K, 5620 kPa, m1 = 0.09327	754.25
348.15 K, 10160 kPa, m1 = 1.55	863.08
348.15 K, 10240 kPa, m1 = 0.4379	785.57
348.15 K, 10310 kPa, m1 = 0.9896	824.81
348.15 K, 10410 kPa, m1 = 0.6899	803.58
348.15 K, 10450 kPa, m1 = 1.266	843.06
348.15 K, 10480 kPa, m1 = 0.1743	766.21
348.15 K, 10820 kPa, m1 = 0.09327	760.15
348.15 K, 14890 kPa, m1 = 0.6899	808.11
348.15 K, 15210 kPa, m1 = 0.9896	829.63
348.15 K, 15310 kPa, m1 = 0.4379	790.73
348.15 K, 15380 kPa, m1 = 0.09327	765.02
348.15 K, 15680 kPa, m1 = 1.55	868.22
348.15 K, 15760 kPa, m1 = 0.1743	771.77
348.15 K, 15840 kPa, m1 = 1.266	847.95
348.15 K, 19980 kPa, m1 = 1.266	851.59
348.15 K, 20060 kPa, m1 = 0.6899	813.01
348.15 K, 20430 kPa, m1 = 0.09327	770.09
